Columns and labels:
[1] = Absorbance scan by spectrophotometer; type: physicochemical
Experimental: Absorbance wavelengths of compound 1 were scanned using a Beckman DU®800 spectrophotometer.
In order to confirm whether compound 1 absorbs at UVA or UVB wavelengths, its ability to absorb SUV light between […] was examined. […] In addition, an anchorage-independent growth assay was performed to assess the effect of compound 1 on cell transformation. […] Similarly, cell proliferation was determined by a crystal violet staining assay.

[2] = test system: JB6 P+ cells; experiment: Western blot of SUV-induced TOPK downstream signaling; type: cell-based, mouse
Experimental: The cells were cultured, treated for 4 h with different concentrations of compound 1 and then exposed to SUV (60 kJ UVA/m^2 and 2.9 kJ UVB/m^2), followed by an additional 15-minute incubation. Cells were harvested and the levels of phosphorylated and total proteins were determined by Western blot analysis with specific antibodies as indicated. […] The cells were cultured and treated with different concentrations of compound 1 for 24 h. Cells were harvested and the levels of phosphorylated and total proteins were determined by Western blot analysis with specific antibodies as indicated. […] For the luciferase assay, JB6 P+ cells stably transfected with an AP-1 luciferase reporter plasmid were cultured. […] Luciferase activity was measured and AP-1 activity is expressed relative to control cells without SUV treatment. […] Luciferase and 3-galactosidase activities were measured using reagents included in the reporter assay system (right). […] Significant differences were evaluated using one-way ANOVA and the asterisks (*) indicate a significant effect (*, p<0.05; **, p<0.001; ***, p<0.0001). […]
HaCaT or JB6 P+ cells (1×10^6) were cultured in 10-cm dishes for 24 h and then the medium was replaced with 0.1% FBS medium for 24 h. […] Protein concentration in cell lysates was determined using a protein assay kit (Bio-Rad Laboratories, Hercules, Calif.). […]

O=C1Nc2ccc(C34CC5CC(CC(C5)C3)C4)cc2C1=NO [compound 1, 5-(adamantan-1-yl)-3-(hydroxyimino)indolin-2-one]
absorbance of UVA or UVB [1]: did not show significant absorbance of UVA or UVB | peak absorption ([1]; scanned between 250 and 320 nm): 259 nm | wavelength range of main light absorption ([1]; scanned between 250 and 320 nm): 250-275 nm | phosphorylated c-Jun protein levels ([2]; JB6 P+ cells exposed to SUV): significantly suppressed | phosphorylation of ERK1/2, p38, and JNKs ([2]; JB6 P+ cells, 4 h treatment then SUV (60 kJ UVA/m2 and 2.9 kJ UVB/m2)): markedly suppressed
